Experimental data: patent publication US10227344B2, “CK2 inhibitors, compositions and methods thereof” (Polaris Pharmaceuticals, Inc., priority 2016, dated 2019)
Where a name gives a salt, the structure may show the parent alone.

Target: purified CK2α enzyme (Homo sapiens, UniProt P68400)
Experiment: CK2 Protein Kinase Inhibition Assay (coupled PK/LDH assay)
Assay type: biochemical
Conditions: CK2 enzyme 25 nM, 100 μM ATP, 37° C., Morrison equation
Experimental: A coupled PK (pyruvate kinase)/LDH (lactate dehydrogenase) assay was used to measure compounds' ability to inhibit purified CK2α enzyme.
The ADP product of kinase CK2a is the cofactor for PK. Phospho(enol)pyruvate (PEP) PEP is metabolized by pyruvate kinase to yield pyruvate, which is the substrate for LDH.
Serially diluted compounds were pre-incubated for 10 min at 37° C. with and 1.5 mM […] peptide substrate, 6 U/ml PK and 10 U/ml LDH (purchased from Sigma-Aldrich), 100 μM ATP, 1.2 mM NADH, 4 mM PEP in the reaction buffer (50 mM Tris (pH 8.25), 0.1 M NaCl, 10 mM magnesium acetate). The reaction was initiated by the addition of an equal volume of purified CK2 enzyme (final concentration 25 nM) diluted in the reaction buffer. Absorbance at 340 nm was measured overtime (for 30 min) at 37° C.; as NADH was converted to NAD+ the absorbance decreases. Absorbance decrease rate (per min) was plotted against the compound concentration and Ki is determined by GraphPad Prism using Morrison equation. All data points were performed in triplicate and each compound was tested in at least two separate experiments.
To this end, K, values of less than 2.5 nM are labelled as “+++”, from 2.5 nM to 10 nM are labelled as “++”, and greater than 10 nM are labelled as “+”.

purified CK2α enzyme, sequence (P68400 whole entry): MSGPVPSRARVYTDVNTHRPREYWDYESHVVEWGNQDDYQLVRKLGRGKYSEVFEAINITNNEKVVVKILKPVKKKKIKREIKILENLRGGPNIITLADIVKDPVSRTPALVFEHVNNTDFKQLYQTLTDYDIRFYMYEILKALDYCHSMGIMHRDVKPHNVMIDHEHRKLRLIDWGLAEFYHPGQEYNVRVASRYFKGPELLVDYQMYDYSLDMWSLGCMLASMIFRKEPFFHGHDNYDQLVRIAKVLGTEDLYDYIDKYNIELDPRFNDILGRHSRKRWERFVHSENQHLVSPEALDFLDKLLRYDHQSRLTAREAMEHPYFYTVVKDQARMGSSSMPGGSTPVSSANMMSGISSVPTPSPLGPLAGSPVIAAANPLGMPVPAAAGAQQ

SMILES | Ki
C[S+]([O-])Cc1cc(Nc2cc(NC3CC3)n3ncc(C#N)c3n2)ccc1N1CCCC1 (racemic) [Example 46, (±)-7-(Cyclopropylamino)-5-((3-((methylsulfinyl)methyl)-4-(pyrrolidin-1-yl)phenyl)amino)pyrazolo[1,5-a]pyrimidine-3-carbonitrile] | < 2.5 nM
CN(CCN)c1ccc(Nc2cc(NC3CC3)c3ncc(C#N)n3n2)cc1C[S+](C)[O-] (racemic) [Example 47, (±)-6-((4-((2-Aminoethyl)(methyl)amino)-3-((methylsulfinyl)methyl)phenyl)amino)-8-(cyclopropylamino)imidazo[1,2-b]pyridazine-3-carbonitrile mono trifluoroacetic acid salt] | 2.5 to 10 nM
CN(CCN)c1ccc(Nc2nc(NC3CC3)c3ncc(C#N)n3n2)cc1C[S+](C)[O-] (racemic) [Example 49, (±)-2-((4-((2-aminoethyl)(methyl)amino)-3-((methylsulfinyl)methyl)phenyl)amino)-4-(cyclopropylamino)imidazo[2,1-f][1,2,4]triazine-7-carbonitrile mono trifluoroacetic acid salt] | 2.5 to 10 nM
CN(CCN)c1ccc(Nc2nc(NC3CC3)n3ncc(C#N)c3n2)cc1C[S+](C)[O-] (racemic) [Example 51, (±)-2-((4-((2-aminoethyl)(methyl)amino)-3-((methylsulfinyl)methyl)phenyl)amino)-4-(cyclopropylamino)pyrazolo[1,5-a][1,3,5]triazine-8-carbonitrile mono trifluoroacetic acid salt] | < 2.5 nM
C[S+]([O-])Cc1cc(Nc2cc(Nc3ccccn3)n3ncc(C#N)c3n2)ccc1C1CC1 (racemic) [Example 54, (±)-5-((4-Cyclopropyl-3-((methylsulfinyl)methyl)phenyl)amino)-7-(pyridin-2-ylamino)pyrazolo[1,5-a]pyrimidine-3-carbonitrile] | < 2.5 nM
C[S+]([O-])Cc1cc(Nc2cc(Nc3cccnc3)n3ncc(C#N)c3n2)ccc1C1CC1 (racemic) [Example 55, (±)-5-((4-Cyclopropyl-3-((methylsulfinyl)methyl)phenyl)amino)-7-(pyridin-3-ylamino)pyrazolo[1,5-a]pyrimidine-3-carbonitrile] | < 2.5 nM
C[S+]([O-])Cc1cc(Nc2cc(Nc3ccc(N)nc3)n3ncc(C#N)c3n2)ccc1C1CC1 (racemic) [Example 56, (±)-7-((6-Aminopyridin-3-yl)amino)-5-((4-cyclopropyl-3-((methylsulfinyl)methyl)phenyl)amino)pyrazolo[1,5-a]pyrimidine-3-carbonitrile] | < 2.5 nM
C[S+]([O-])Cc1cc(Nc2cc(Nc3ccc(N)cn3)n3ncc(C#N)c3n2)ccc1C1CC1 (racemic) [Example 57, (±)-7-((5-Aminopyridin-2-yl)amino)-5-((4-cyclopropyl-3-((methylsulfinyl)methyl)phenyl)amino)pyrazolo[1,5-a]pyrimidine-3-carbonitrile] | < 2.5 nM
CC(N)c1ccc(Nc2cc(NC3CC3)n3ncc(C#N)c3n2)cc1C[S+](C)[O-] (racemic) [Example 58, (±)-5-((4-((R,S)-1-Aminoethyl)-3-((methylsulfinyl)methyl)phenyl)amino)-7-(cyclopropylamino)pyrazolo[1,5-a]pyrimidine-3-carbonitrile mono trifluoroacetic acid salt] | 2.5 to 10 nM
C[S+]([O-])Cc1cc(Nc2cc(NC3CC3)n3ncc(C#N)c3n2)ccc1C1(N)CC1 (racemic) [Example 59, (±)-5-((4-(1-Aminocyclopropyl)-3-((methylsulfinyl)methyl)phenyl)amino)-7-(cyclopropylamino)pyrazolo[1,5-a]pyrimidine-3-carbonitrile mono trifluoroacetic acid salt] | 2.5 to 10 nM
C/C(=C\CN)c1ccc(Nc2cc(NC3CC3)n3ncc(C#N)c3n2)cc1C[S+](C)[O-] (racemic) [Example 60, (±)-(E)-5-((4-(4-aminobut-2-en-2-yl)-3-((methylsulfinyl)methyl)phenyl)amino)-7-(cyclopropylamino)pyrazolo[1,5-a]pyrimidine-3-carbonitrile mono trifluoroacetic acid salt] | < 2.5 nM
C[S+]([O-])Cc1cc(Nc2cc(NC3CC3)n3ncc(C#N)c3n2)ccc1C1CCCNC1 (racemic) [Example 61, (±)-7-(Cyclopropylamino)-5-((3-((methylsulfinyl)methyl)-4-((R,S)-piperidin-3-yl)phenyl)amino)pyrazolo[1,5-a]pyrimidine-3-carbonitrile mono trifluoroacetic acid salt] | 2.5 to 10 nM
C[S+]([O-])Cc1cc(Nc2cc(NC3CC3)n3ncc(C#N)c3n2)ccc1C1=CCNC1 (racemic) [Example 62, (±)-7-(Cyclopropylamino)-5-((4-(2,5-dihydro-1H-pyrrol-3-yl)-3-((methylsulfinyl)methyl)phenyl)amino)pyrazolo[1,5-a]pyrimidine-3-carbonitrile mono trifluoroacetic acid salt] | 2.5 to 10 nM
C[S+]([O-])Cc1cc(Nc2cc(NC3CC3)n3ncc(C#N)c3n2)ccc1C1CCNC1 (racemic) [Example 63, (±)-7-(Cyclopropylamino)-5-((3-((methylsulfinyl)methyl)-4-((R,S)-pyrrolidin-3-yl)phenyl)amino)pyrazolo[1,5-a]pyrimidine-3-carbonitrile mono trifluoroacetic acid salt] | 2.5 to 10 nM
CC(CCN)c1ccc(Nc2cc(NC3CC3)n3ncc(C#N)c3n2)cc1C[S+](C)[O-] (racemic) [Example 64, (±)-5-((4-(R,S)-4-Aminobutan-2-yl)-3-((methylsulfinyl)methyl)phenyl)amino)-7-(cyclopropylamino)pyrazolo[1,5-a]pyrimidine-3-carbonitrile mono trifluoroacetic acid salt] | 2.5 to 10 nM
CN(CC1(N)CC1)c1ccc(Nc2cc(NC3CC3)n3ncc(C#N)c3n2)cc1C[S+](C)[O-] (racemic) [Example 65, (±)-5-((4-(((1-Aminocyclopropyl)methyl)(methyl)amino)-3-((methylsulfinyl)methyl)phenyl)amino)-7-(cyclopropylamino)pyrazolo[1,5-a]pyrimidine-3-carbonitrile mono trifluoroacetic acid salt] | < 2.5 nM
CN(CC(C)(C)N)c1ccc(Nc2cc(NC3CC3)n3ncc(C#N)c3n2)cc1C[S+](C)[O-] (racemic) [Example 67, (±)-5-((4-((2-Amino-2-methylpropyl)(methyl)amino)-3-((methylsulfinyl)methyl)phenyl)amino)-7-(cyclopropylamino)pyrazolo[1,5-a]pyrimidine-3-carbonitrile mono trifluoroacetic acid salt] | < 2.5 nM
C[S+]([O-])Cc1cc(Nc2cc(Nc3ccc(N)cn3)n3ncc(C#N)c3n2)ccc1N1CC[C@H](N)C1 (mixture of isomers) [Example 68, (±)-7-((5-Aminopyridin-2-yl)amino)-5-((4-((S)-3-aminopyrrolidin-1-yl)-3-((methylsulfinyl)methyl)phenyl)amino)pyrazolo[1,5-a]pyrimidine-3-carbonitrile] | < 2.5 nM
CN(C)Cc1ccc(Nc2cc(Nc3ccc(C4CC4)c(C[S+](C)[O-])c3)nc3c(C#N)cnn23)nc1 (racemic) [Example 69, (±)-5-((4-Cyclopropyl-3-((methylsulfinyl)methyl)phenyl)amino)-7-((5-((dimethylamino)methyl)pyridin-2-yl)amino)pyrazolo[1,5-a]pyrimidine-3-carbonitrile] | < 2.5 nM
